Assay results taken from ChEMBL document CHEMBL3585344, “Thiazole-based aminopyrimidines and N-phenylpyrazolines as potent antimicrobial agents: synthesis and biological evaluation” (2014).
Converted amounts (≈) assume the structure as drawn.

What was measured:
Talaromyces funiculosus [1] = experiment: Antifungal activity against Penicillium funiculosum ATCC 36839 after 72 hrs by microdilution method; assay type: functional; settings: ATCC 36839, 72 h
Aspergillus fumigatus [2] = experiment: Fungicidal activity against Aspergillus fumigatus isolated from human after 72 hrs by microdilution method; assay type: functional
Escherichia coli [3] = experiment: Antibacterial activity against Escherichia coli ATCC 35210 after 24 hrs by microdilution method; assay type: functional; settings: ATCC 35210, 24 h
Aspergillus ochraceus [4] = experiment: Antifungal activity against Aspergillus ochraceus ATCC 12066 after 72 hrs by microdilution method; assay type: functional; settings: ATCC 12066, 72 h
Enterococcus faecalis [5] = experiment: Bactericidal activity against Enterococcus faecalis ATCC 7080 isolated from human after 72 hrs by microdilution method; assay type: functional
Aspergillus ochraceus [6] = experiment: Fungicidal activity against Aspergillus ochraceus ATCC 12066 after 72 hrs by microdilution method; assay type: functional
Trichoderma viride [7] = experiment: Fungicidal activity against Trichoderma viride IAM 5061 after 72 hrs by microdilution method; assay type: functional
Penicillium ochrochloron [8] = experiment: Antifungal activity against Penicillium ochrochloron ATCC 9112 after 72 hrs by microdilution method; assay type: functional; settings: ATCC 9112, 72 h
Salmonella typhimurium [9] = experiment: Bactericidal activity against Salmonella typhimurium ATCC 13311 after 72 hrs by microdilution method; assay type: functional, Salmonella enterica subsp. enterica serovar Typhimurium
Bacillus cereus [10] = experiment: Antibacterial activity against Bacillus cereus clinical isolate after 24 hrs by microdilution method; assay type: functional
Aspergillus versicolor [11] = experiment: Antifungal activity against Aspergillus versicolor ATCC 11730 after 72 hrs by microdilution method; assay type: functional; settings: ATCC 11730, 72 h
Listeria monocytogenes [12] = experiment: Bactericidal activity against Listeria monocytogenes NCTC 7973 after 72 hrs by microdilution method; assay type: functional
Pseudomonas aeruginosa [13] = experiment: Bactericidal activity against Pseudomonas aeruginosa ATCC 27853 after 72 hrs by microdilution method; assay type: functional
Enterococcus faecalis [14] = experiment: Antibacterial activity against Enterococcus faecalis ATCC 7080 isolated from human after 24 hrs by microdilution method; assay type: functional; settings: ATCC 7080, 24 h
Micrococcus flavus [15] = experiment: Bactericidal activity against Micrococcus flavus ATCC 10240 after 72 hrs by microdilution method; assay type: functional
Staphylococcus aureus [16] = experiment: Bactericidal activity against Staphylococcus aureus ATCC 6538 after 72 hrs by microdilution method; assay type: functional
Talaromyces funiculosus [17] = experiment: Fungicidal activity against Penicillium funiculosum ATCC 36839 after 72 hrs by microdilution method; assay type: functional
Aspergillus niger [18] = experiment: Fungicidal activity against Aspergillus niger ATCC 6275 after 72 hrs by microdilution method; assay type: functional
Penicillium ochrochloron [19] = experiment: Fungicidal activity against Penicillium ochrochloron ATCC 9112 after 72 hrs by microdilution method; assay type: functional
Bacillus cereus [20] = experiment: Bactericidal activity against Bacillus cereus clinical isolate after 72 hrs by microdilution method; assay type: functional
Aspergillus fumigatus [21] = experiment: Antifungal activity against Aspergillus fumigatus isolated from human after 72 hrs by microdilution method; assay type: functional
Micrococcus flavus [22] = experiment: Antibacterial activity against Micrococcus flavus ATCC 10240 after 24 hrs by microdilution method; assay type: functional; settings: ATCC 10240, 24 h
Salmonella typhimurium [23] = experiment: Antibacterial activity against Salmonella typhimurium ATCC 13311 after 24 hrs by microdilution method; assay type: functional, Salmonella enterica subsp. enterica serovar Typhimurium; settings: Salmonella enterica, ATCC 13311, 24 h
Trichoderma viride [24] = experiment: Antifungal activity against Trichoderma viride IAM 5061 after 72 hrs by microdilution method; assay type: functional; settings: IAM 5061, 72 h
Aspergillus flavus [25] = experiment: Fungicidal activity against Aspergillus flavus ATCC 9643 after 72 hrs by microdilution method; assay type: functional
Staphylococcus aureus [26] = experiment: Antibacterial activity against Staphylococcus aureus ATCC 6538 after 24 hrs by microdilution method; assay type: functional; settings: ATCC 6538, 24 h
Aspergillus versicolor [27] = experiment: Fungicidal activity against Aspergillus versicolor ATCC 11730 after 72 hrs by microdilution method; assay type: functional
Pseudomonas aeruginosa [28] = experiment: Antibacterial activity against Pseudomonas aeruginosa ATCC 27853 after 24 hrs by microdilution method; assay type: functional; settings: ATCC 27853, 24 h
Aspergillus flavus [29] = experiment: Antifungal activity against Aspergillus flavus ATCC 9643 after 72 hrs by microdilution method; assay type: functional; settings: ATCC 9643, 72 h
Listeria monocytogenes [30] = experiment: Antibacterial activity against Listeria monocytogenes NCTC 7973 after 24 hrs by microdilution method; assay type: functional; settings: NCTC 7973, 24 h
Escherichia coli [31] = experiment: Bactericidal activity against Escherichia coli ATCC 35210 after 72 hrs by microdilution method; assay type: functional
Aspergillus niger [32] = experiment: Antifungal activity against Aspergillus niger ATCC 6275 after 72 hrs by microdilution method; assay type: functional; settings: ATCC 6275, 72 h

MIC (Talaromyces funiculosus [1]) [µM]	MIC (Escherichia coli [3]) [µM]	MIC (Aspergillus ochraceus [4]) [µM]	MIC (Penicillium ochrochloron [8]) [µM]	MIC (Bacillus cereus [10]) [µM]	MIC (Aspergillus versicolor [11]) [µM]	MIC (Enterococcus faecalis [14]) [µM]	Compound	MFC99.5 (Aspergillus fumigatus [2]) [×10⁻² umol/ml]	MBC99.5 (Enterococcus faecalis [5]) [×10⁻² umol/ml]	MFC99.5 (Aspergillus ochraceus [6]) [×10⁻² umol/ml]	MFC99.5 (Trichoderma viride [7]) [×10⁻² umol/ml]	MBC99.5 (Salmonella typhimurium [9]) [×10⁻² umol/ml]	MBC99.5 (Listeria monocytogenes [12]) [×10⁻² umol/ml]	MBC99.5 (Pseudomonas aeruginosa [13]) [×10⁻² umol/ml]	MBC99.5 (Micrococcus flavus [15]) [×10⁻² umol/ml]	MBC99.5 (Staphylococcus aureus [16]) [×10⁻² umol/ml]	MFC99.5 (Talaromyces funiculosus [17]) [×10⁻² umol/ml]	MFC99.5 (Aspergillus niger [18]) [×10⁻² umol/ml]	MFC99.5 (Penicillium ochrochloron [19]) [×10⁻² umol/ml]	MBC99.5 (Bacillus cereus [20]) [×10⁻² umol/ml]	other results
110 (≈ 40 µg/mL)	276 (≈ 100 µg/mL)	27.6 (≈ 10 µg/mL)	309 (≈ 112 µg/mL)	55.2 (≈ 20 µg/mL)	55.2 (≈ 20 µg/mL)	110 (≈ 40 µg/mL)	CCNc1nc(C)c(C2=NN(c3ccccc3)C(c3ccccc3)C2)s1 (stereo unspecified)	44.16	27.6	11.04	30.9	30.9	11.04	44.16	44.16	27.6	30.9	44.16	44.16	27.6	MIC (Aspergillus fumigatus [21]): 110 µM (≈ 40 µg/mL); MIC (Micrococcus flavus [22]): 110 µM (≈ 40 µg/mL); MIC (Salmonella typhimurium [23]): 276 µM (≈ 100 µg/mL); MIC (Trichoderma viride [24]): 276 µM (≈ 100 µg/mL); MFC99.5 (Aspergillus flavus [25]): 27.6 ×10⁻² umol/ml; MIC (Staphylococcus aureus [26]): 27.6 µM (≈ 10 µg/mL); MFC99.5 (Aspergillus versicolor [27]): 27.6 ×10⁻² umol/ml; MIC (Pseudomonas aeruginosa [28]): 276 µM (≈ 100 µg/mL); MIC (Aspergillus flavus [29]): 110 µM (≈ 40 µg/mL); MIC (Listeria monocytogenes [30]): 55.2 µM (≈ 20 µg/mL); MBC99.5 (Escherichia coli [31]): 44.16 ×10⁻² umol/ml; MIC (Aspergillus niger [32]): 309 µM (≈ 112 µg/mL)
276 (≈ 100 µg/mL)	276 (≈ 100 µg/mL)	96 (≈ 34.8 µg/mL)	276 (≈ 100 µg/mL)	55.2 (≈ 20 µg/mL)	55.2 (≈ 20 µg/mL)	442 (≈ 160 µg/mL)	CNc1nc(C)c(C2=NN(c3ccccc3)C(c3ccc(C)cc3)C2)s1 (stereo unspecified)	44.16	58.64	11.04	11.04	27.6	11.04	33.12	58.6	27.6	44.16	58.6	44.6	27.6	MIC (Aspergillus fumigatus [21]): 276 µM (≈ 100 µg/mL); MIC (Micrococcus flavus [22]): 276 µM (≈ 100 µg/mL); MIC (Salmonella typhimurium [23]): 110 µM (≈ 40 µg/mL); MIC (Trichoderma viride [24]): 55.2 µM (≈ 20 µg/mL); MFC99.5 (Aspergillus flavus [25]): 27.6 ×10⁻² umol/ml; MIC (Staphylococcus aureus [26]): 110 µM (≈ 40 µg/mL); MFC99.5 (Aspergillus versicolor [27]): 27.6 ×10⁻² umol/ml; MIC (Pseudomonas aeruginosa [28]): 276 µM (≈ 100 µg/mL); MIC (Aspergillus flavus [29]): 110 µM (≈ 40 µg/mL); MIC (Listeria monocytogenes [30]): 96 µM (≈ 34.8 µg/mL); MBC99.5 (Escherichia coli [31]): 58.6 ×10⁻² umol/ml; MIC (Aspergillus niger [32]): 442 µM (≈ 160 µg/mL)
109 (≈ 40 µg/mL)	54.6 (≈ 20 µg/mL)	54.6 (≈ 20 µg/mL)	214 (≈ 78.4 µg/mL)	54.6 (≈ 20 µg/mL)	54.6 (≈ 20 µg/mL)	54.6 (≈ 20 µg/mL)	CNc1nc(C)c(C2=NN(c3ccccc3)C(c3ccc(F)cc3)C2)s1 (stereo unspecified)	10.92	27.3	27.3	47.8	27.3	95.5	27.3	47.8	27.3	27.3	95.5	47.8	27.3	MIC (Aspergillus fumigatus [21]): 54.6 µM (≈ 20 µg/mL); MIC (Micrococcus flavus [22]): 54.6 µM (≈ 20 µg/mL); MIC (Salmonella typhimurium [23]): 54.6 µM (≈ 20 µg/mL); MIC (Trichoderma viride [24]): 109 µM (≈ 40 µg/mL); MFC99.5 (Aspergillus flavus [25]): 47.8 ×10⁻² umol/ml; MIC (Staphylococcus aureus [26]): 27.3 µM (≈ 10 µg/mL); MFC99.5 (Aspergillus versicolor [27]): 21.4 ×10⁻² umol/ml; MIC (Pseudomonas aeruginosa [28]): 27.3 µM (≈ 10 µg/mL); MIC (Aspergillus flavus [29]): 54.6 µM (≈ 20 µg/mL); MIC (Listeria monocytogenes [30]): 54.6 µM (≈ 20 µg/mL); MBC99.5 (Escherichia coli [31]): 47.8 ×10⁻² umol/ml; MIC (Aspergillus niger [32]): 478 µM (≈ 175 µg/mL)
